Reference: US8143212B2 (Vicuron Pharmaceuticals Inc., priority 2002, dated 2012)
≈ marks a conversion by molar mass, not a printed value. Like-named read-outs stand apart in the source and are kept apart here.

Key:
[1] = test system: Staph. aureus; assay: ED50 against Staph. aureus murine septicaemias (Table 2); assay type: in vivo; details: Staphylococcus aureus, MSSA, sc, 10 min
[2] = test system: S aureus; assay: MIC, microbiological activity (Tables 2, 3); assay type: cell-based
[3] = test system: S haemolyticus; assay: MIC, microbiological activity (Table 3); assay type: cell-based; details: L 602 S haemolyticus clin. isolate; read-out: MIC
[4] = test system: E faecalis; assay: MIC, microbiological activity (Table 3); assay type: cell-based; details: read-out: MIC
[5] = test system: B subtilis; assay: MIC, microbiological activity (Table 3); assay type: cell-based; details: L 102 B subtilis ATCC; read-out: MIC
[6] = test system: Gram-positive pathogen; assay: Phase II SSTI trial: microbiological response; assay type: in vivo, human; details: for Success Rate by Pathogen: Microbiologically ITT Population at FU; for eradication/presumed eradication rate, all organisms: FU assessment
Experimental: There were 62 patients randomized into the study; all received at least one dose of study medication. Four study populations were evaluated for safety and efficacy and were defined as follows: The intent-to-treat (ITT) population included all patients who received at least one dose of study drug (all randomized study subjects).
Microbiological outcome, a secondary efficacy variable, was assessed in the subpopulation of patients who had microbiologically documented SSTI (i.e., at least one identified baseline pathogen). A microbiologic response was assessed for each Gram-positive pathogen identified at baseline (i.e., eradication, presumed eradication, persistence, presumed persistence). For patients for whom follow-up cultures were not performed, the microbiologic responses for baseline pathogens were presumed on the basis of the clinical response. Microbiologic response by patient at the EOT and FU visits was graded as success (i.e., all Gram-positive organisms eradicated or presumed eradicated) or failure (i.e., at least one Gram-positive organism persisted or presumed to have persisted, multiple pathogens with partial eradication). At both the EOT and FU visits, colonization and superinfection were assessed. At the FU visit, a patient's bacteriological response could also include recurrence.

[7] = test system: Gram-positive isolates, including MRSA; assay type: cell-based; details: baseline isolates, MITT
[8] = Pharmacokinetics and renal excretion in healthy subjects, single 1000 mg IV; assay type: in vivo, human; details: for t1/2: healthy subjects, single 1000 mg IV
Experimental: Blood samples were drawn into heparinized tubes and centrifuged. Plasma was separated and stored frozen at −20° C. until time of assay. Plasma and urine samples were assayed for dalbavancin using validated LC/MS/MS methods. […] The peak concentration (Cmax) values were obtained directly from the observed data. The area under the plasma concentration-time curve (AUC) was calculated using the linear trapezoidal rule. Clearance (CL) was computed as dose/AUC. The elimination half life (t1/2) was estimated by linear regression of the log-linear portion of the log concentration versus time curve. Estimates of the volume of distribution (VZ) was calculated using the regression parameters, while the volume of distribution at steady state (VSS) was calculated from the area under the first moment curve (AUMC) multiplied by the dose and divided by AUC. The cumulative amount of dalbavancin excreted in urine was determined as the integrand of the urine excretion rate (AURC). CLR, or renal clearance, was calculated as the ratio: CLR=AURC/AUC.

[9] = test system: bacteria; assay: Minimum bactericidal concentration; assay type: cell-based; details: in plasma
Description: The amount of dalbavancin administered may be any of the dosages disclosed herein.

[10] = human, in vivo
[11] = in vivo
Experimental: Safety was evaluated by the collection and analysis of data on adverse events (AEs), clinical laboratory tests, physical examinations, vital signs, and ECGs.

[12] = human, in vivo; remark: listed apart in the source
Description: (§1) The study enrolled otherwise healthy subjects with mild, moderate, or severe hepatic impairment (Child-Pugh scores 5 to 6, 7 to 9, and 10 to 15, respectively) and matched control subjects with normal hepatic function.

[13] = target: human albumin (Homo sapiens, UniProt P02768); details: pH 7.4
human albumin, sequence (P02768 25-609): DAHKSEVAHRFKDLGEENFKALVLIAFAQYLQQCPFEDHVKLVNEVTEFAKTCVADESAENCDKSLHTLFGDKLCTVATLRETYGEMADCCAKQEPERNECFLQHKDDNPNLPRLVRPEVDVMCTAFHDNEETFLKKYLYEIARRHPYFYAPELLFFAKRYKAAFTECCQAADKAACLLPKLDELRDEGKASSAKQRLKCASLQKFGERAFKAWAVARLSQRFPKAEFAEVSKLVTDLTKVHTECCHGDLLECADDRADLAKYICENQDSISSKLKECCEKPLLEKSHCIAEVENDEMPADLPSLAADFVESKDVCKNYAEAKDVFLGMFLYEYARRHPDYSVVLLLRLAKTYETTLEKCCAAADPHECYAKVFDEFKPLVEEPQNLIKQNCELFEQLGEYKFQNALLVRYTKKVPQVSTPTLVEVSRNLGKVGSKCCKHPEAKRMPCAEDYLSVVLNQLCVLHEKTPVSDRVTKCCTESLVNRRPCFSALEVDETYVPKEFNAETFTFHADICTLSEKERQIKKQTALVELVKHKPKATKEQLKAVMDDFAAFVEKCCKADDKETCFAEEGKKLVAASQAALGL
Experimental: Integrated heat effects, after correction for heats of dilution, were analyzed by non-linear regression using a simple single-site binding model with the standard Microcal ORIGIN software package. Raw data (μcal/sec) for each injection were integrated to give the total heat effect per addition, then divided by amount of injectant to give kcal/mole of injectant. The same integration was applied for control dilution effects, and this was subtracted from the actual titration data. This provided a differential of the binding curve in which the extent of binding is proportional to the total heat liberated (or absorbed). This was then analyzed by non-linear regression methods in terms of various standard binding models. The simplest model assumes simple non-competitive binding equilibrium, and gives three parameters:

[14] = clinical; details: human, in vivo; for AUC(0-inf): AUC0-inf; for clearance: CL; for Vd: Vss
Experimental: The peak concentrations (Cmax) were obtained directly from the observed data. The area under the plasma concentration-time curve (AUC) were calculated using the linear trapezoidal rule.
Clinical Study VER001-13 examined subjects with mild and moderate renal impairment and Clinical Study VER001-1 examined subjects with severe renal impairment and subjects with end-stage renal disease (ESRD). Matched control subjects were enrolled in all studies. […] Subjects with ESRD were dependent on dialysis through the course of the study (3 times weekly).

[15] = clinical; details: human, in vivo
Description: as §1

[16] = Plasma pharmacokinetics in thigh-infected neutropenic mice; details: intraperitoneal
Experimental: Neutropenia in this and all other studies was produced by injections of cyclophosphamide, 150 mg/kg 4 days prior to study, 100 mg/kg 1 day prior to study and 100 mg/kg every 48 h after start of infection until end of study. Neutrophil counts remained less than 100/mm^3 for the duration of study. Doses of 2.5, 5, 10, 20; 40, and 80 mg/kg were studied. Drug was administered by intraperitoneal injection of 0.2 ml volume. Blood was removed from groups of three mice by retroorbital aspiration into heparinized capillary tubes at 0.5, 1, 2, 4, 6, 24, 48, 72, and 96 hours after dosing. […] AUC was calculated by the trapezoidal rule from mean concentrations.

CN[C@H]1C(=O)N[C@@H]2Cc3ccc(cc3)Oc3cc4cc(c3O[C@@H]3O[C@H](C(=O)O)[C@@H](O)[C@H](O)[C@H]3NC(=O)CCCCCCCCC(C)C)Oc3ccc(cc3Cl)[C@@H](O)[C@@H]3NC(=O)[C@H](NC(=O)[C@@H]4NC(=O)[C@@H](NC2=O)c2cc(cc(O)c2Cl)Oc2cc1ccc2O)c1ccc(O)c(c1)-c1c(O[C@H]2O[C@H](CO)[C@@H](O)[C@H](O)[C@@H]2O)cc(O)cc1[C@@H](C(=O)NCCCN(C)C)NC3=O [Dalbavancin]
ED50 [1]: 0.05 mg/kg | MIC ([2]; 3817 S aureus clin. Isolate, read-out: MIC): < 0.03 µg/mL | MIC ([2]; L 819 S aureus Smith 50% serum): 2 µg/mL (≈ 1.1 µM) | MIC ([2]; L 819 S aureus Smith 50% serum, read-out: MIC): 1 µg/mL (≈ 0.55 µM) | MIC ([2]; Staphylococcus aureus, MSSA, MSSA Staph. aureus Smith 819, read-out: MIC): 0.06 µg/mL (≈ 0.033 µM) | MIC [3]: > 32 µg/mL | MIC ([4]; L 149 E faecalis): 0.06 µg/mL (≈ 0.033 µM) | MIC ([4]; L 562 E faecalis clin. isolate): > 32 µg/mL | MIC [5]: < 0.03 µg/mL | S. aureus eradication rate ([6]; FU, single-dose): 50% | S. aureus eradication rate ([6]; FU, two-dose): 90% | Microbiologic Success Rate ([6]; MITT population, EOT, Single-dose (1100 mg)): 5/14 (35.7) % | Microbiologic Success Rate ([6]; MITT population, EOT, Two-dose (1000/500 mg)): 10/13 (76.9) % | Microbiologic Success Rate ([6]; MITT population, FU, Single-dose (1100 mg)): 3/14 (21.4) % | Microbiologic Success Rate ([6]; MITT population, FU, Two-dose (1000/500 mg)): 9/13 (69.2) % | MRSA eradication rate ([6]; MITT population, single-dose): 50% | MRSA eradication rate ([6]; MITT population, two-dose): 80% | Success Rate by Pathogen ([6]; Methicillin-resistant S. aureus, Single-dose (1100 mg)): 3/6 (50%) | Success Rate by Pathogen ([6]; Methicillin-resistant S. aureus, Two-dose (1000/500 mg)): 4/5 (80%) | Microbiologic Success Rate ([6]; Microbiologically evaluable population, EOT, Single-dose (1100 mg)): 5/13 (38.5) % | Microbiologic Success Rate ([6]; Microbiologically evaluable population, EOT, Two-dose (1000/500 mg)): 8/11 (72.7) % | Microbiologic Success Rate ([6]; Microbiologically evaluable population, FU, Single-dose (1100 mg)): 3/11 (27.3) % | Microbiologic Success Rate ([6]; Microbiologically evaluable population, FU, Two-dose (1000/500 mg)): 8/11 (72.7) % | Success Rate by Pathogen ([6]; Total organisms, Two-dose (1000/500 mg)): 14/16 (87.5%)^ | microbiologic success rates ([6]; both visits (EOT and FU), single dose): < 40% | Microbiologic Success Rate ([6]; microbiologically-evaluable population, EOT, single-dose): 38.5% | Microbiologic Success Rate ([6]; microbiologically-evaluable population, EOT, two-dose): 72.7% | eradication/presumed eradication rate, all organisms ([6]; microbiologically-evaluable population, single-dose): 58% | eradication/presumed eradication rate, all organisms ([6]; microbiologically-evaluable population, two-dose): 92% | Microbiologic Success Rate ([6]; microbiologically-evaluable population, FU, single-dose): 27.3% | Microbiologic Success Rate ([6]; microbiologically-evaluable population, FU, two-dose): 72.7% | Dalbavancin MIC ([7]; All S. aureus, Single dose Dalbavancin (1100 mg) group): (0.12) | Dalbavancin MIC ([7]; All S. aureus, Standard of Care Regimens group): (0.016-0.25) | Dalbavancin MIC ([7]; All S. aureus, Two-dose Dalbavancin (1000/500 mg) group): (0.12) | Dalbavancin MIC ([7]; Group B streptococcus, Standard of Care Regimens group): (0.016) | Dalbavancin MIC ([7]; Group B streptococcus, Two-dose Dalbavancin (1000/500 mg) group): (0.016) | Dalbavancin MIC ([7]; Miscellaneous Streptococcus and nontypeable strains, Single dose Dalbavancin (1100 mg) group): (0.016) | Dalbavancin MIC ([7]; Miscellaneous Streptococcus and nontypeable strains, Standard of Care Regimens group): (0.016) | Dalbavancin MIC ([7]; Miscellaneous Streptococcus and nontypeable strains, Two-dose Dalbavancin (1000/500 mg) group): (0.016) | Dalbavancin MIC ([7]; Streptococcus pyogenes, Standard of Care Regimens group): (0.016) | t1/2 ([8]; Max): 11.8 days | t1/2 ([8]; Min): 9.46 days | peak concentration ([8]; both, human, in vivo): ~165 µM | MBC [9]: ~4 µg/mL (≈ 2.2 µM) | plasma concentration, all patients [10]: greater than 20 mg/l | average difference of effect on QTc values ([11]; human): 7 ms | patients with AEs that led to discontinuation of study drug ([11]; human): 3% | SAE considered to be related to study drug [11]: no SAE | tolerability [12]: well tolerated | Calculated percent Binding ([13]; 1 μM): 98.8% | Calculated percent Binding ([13]; 10 μM): 98.8% | Calculated percent Binding ([13]; 100 μM): 98.7% | Calculated percent Binding ([13]; 165 μM): 98.6% | Calculated percent Binding ([13]; 250 μM): 98.5% | Calculated percent Binding ([13]; 500 μM): 98.0% | AUC ([14]; 500 mg, AUC): 24400 µg·h/mL | AUC ([14]; 500 mg, AUC0-day7): 6080 µg·h/mL | AUC ([14]; 500 mg, AUC0-day14): 10400 µg·h/mL | AUC(0-inf) ([14]; 500 mg): 24100 µg·h/mL | AUC ([14]; 500 mg, AUC7): 6860 µg·h/mL | AUC ([14]; 500 mg, AUC14): 11000 µg·h/mL | clearance ([14]; 500 mg): 0.37 mL/min | Cmax ([14]; 500 mg): 137 µg/mL | Vd ([14]; 500 mg): 13.2 L | AUC ([14]; 1000 mg, AUC): 24500 µg·h/mL | AUC ([14]; 1000 mg, AUC0-day7): 9710 µg·h/mL | AUC ([14]; 1000 mg, AUC0-day14): 15300 µg·h/mL | AUC(0-inf) ([14]; 1000 mg): 27000 µg·h/mL | AUC ([14]; 1000 mg, AUC7): 13400 µg·h/mL | AUC ([14]; 1000 mg, AUC 14): ~22000 µg·h/mL | AUC ([14]; 1000 mg, AUC14): 17700 µg·h/mL | AUC ([14]; 1000 mg, AUC42): 23100 µg·h/mL | clearance ([14]; 1000 mg): 0.627 mL/min | Cmax ([14]; 1000 mg): 340 µg/mL | Vd ([14]; 1000 mg): 16.5 L | AUC ([14]; 1120 mg, AUC): 25800 µg·h/mL | AUC ([14]; 1120 mg, AUC0-day7): 13600 µg·h/mL | AUC ([14]; 1120 mg, AUC0-day14): 20200 µg·h/mL | AUC(0-inf) ([14]; 1120 mg): 25800 µg·h/mL | AUC ([14]; 1120 mg, AUC7): 13600 µg·h/mL | AUC ([14]; 1120 mg, AUC14): 20200 µg·h/mL | clearance ([14]; 1120 mg): 0.728 mL/min | Cmax ([14]; 1120 mg): 325 µg/mL | Vd ([14]; 1120 mg): 8.49 L | clearance ([15]; CL): 0.777 mL/min | Vd ([15]; Vss): 18.1 L | time of peak levels [16]: 4 to 6 h
